From ChEMBL document CHEMBL5634074, “Azaindole derivatives as potential kinase inhibitors and their SARs elucidation” (Eur J Med Chem, 2023) come the findings set out here.

The IC50 is the concentration that inhibits the measured activity by half. Broadly, the efflux ratio is the permeability from basolateral to apical divided by that in the opposite direction, in the common usage. What is called EC50 is the concentration needed to bring the measured effect to its halfway point.

In data set [1] the target is Voltage-gated inwardly rectifying potassium channel KCNH2 (Homo sapiens, UniProt Q12809). Put plainly: Inhibition of hERG (unknown origin). It counts as toxicity.
Voltage-gated inwardly rectifying potassium channel KCNH2, sequence (Q12809 whole entry): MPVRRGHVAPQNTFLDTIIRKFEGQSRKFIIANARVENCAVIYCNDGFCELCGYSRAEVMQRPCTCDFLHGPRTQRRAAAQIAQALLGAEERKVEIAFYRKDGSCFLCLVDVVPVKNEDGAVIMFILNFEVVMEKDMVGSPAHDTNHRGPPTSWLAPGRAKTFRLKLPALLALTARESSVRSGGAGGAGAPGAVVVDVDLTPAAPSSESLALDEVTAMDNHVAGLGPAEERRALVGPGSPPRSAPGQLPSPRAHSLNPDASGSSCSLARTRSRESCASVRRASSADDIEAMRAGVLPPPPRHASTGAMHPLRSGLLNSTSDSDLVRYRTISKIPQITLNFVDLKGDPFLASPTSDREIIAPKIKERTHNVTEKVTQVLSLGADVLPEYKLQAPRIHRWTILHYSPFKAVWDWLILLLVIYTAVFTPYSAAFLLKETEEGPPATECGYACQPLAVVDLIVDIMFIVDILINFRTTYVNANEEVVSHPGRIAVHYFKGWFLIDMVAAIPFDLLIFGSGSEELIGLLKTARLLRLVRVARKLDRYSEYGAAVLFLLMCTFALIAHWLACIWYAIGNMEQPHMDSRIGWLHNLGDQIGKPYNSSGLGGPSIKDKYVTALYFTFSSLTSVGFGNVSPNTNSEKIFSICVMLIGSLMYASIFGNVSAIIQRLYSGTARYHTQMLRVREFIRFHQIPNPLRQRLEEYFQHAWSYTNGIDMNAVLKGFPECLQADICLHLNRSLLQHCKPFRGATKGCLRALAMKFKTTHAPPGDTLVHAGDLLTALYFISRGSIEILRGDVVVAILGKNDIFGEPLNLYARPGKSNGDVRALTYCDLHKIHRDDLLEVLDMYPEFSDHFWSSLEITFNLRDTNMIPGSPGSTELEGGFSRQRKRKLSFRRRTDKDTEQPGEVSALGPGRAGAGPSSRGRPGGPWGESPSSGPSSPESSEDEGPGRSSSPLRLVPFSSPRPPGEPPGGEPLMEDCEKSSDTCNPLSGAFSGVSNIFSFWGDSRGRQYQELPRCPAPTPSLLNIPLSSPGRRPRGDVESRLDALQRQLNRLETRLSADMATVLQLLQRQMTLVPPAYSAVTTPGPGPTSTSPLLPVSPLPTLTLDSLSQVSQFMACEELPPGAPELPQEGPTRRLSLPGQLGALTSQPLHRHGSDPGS
The subject of a further data set is KG-1. The experiment in a line: cells. Particulars: Homo sapiens, KG-1, 72 h.
Data set [2] addresses High affinity nerve growth factor receptor (Homo sapiens, UniProt P04629). Put plainly: Inhibition of TRKA (unknown origin) by Ambit kinase assay.
Data set [3] in a line: Efflux ratio of apparent permeability across basolateral to apical side over apical to basolateral side in dog MDCK-MDR1 cells at 5 uM incubated for 90 mins by LC-MS/MS analysis. Format: ADME, cell-based, Canis lupus familiaris.
For the next data set, the system named is Dengue virus. The experiment in a line: Antiviral activity against DENV infected in human Huh-7 cells assessed as reduction in viral growth incubated for 72 hrs by flow cytometry. Format: functional, organism-based. Particulars: Huh-7, 72 h. For orientation: Flow cytometry measures light scatter and fluorescence of single cells or particles in a stream.

Data set [4] deals with Proto-oncogene tyrosine-protein kinase receptor Ret (Homo sapiens, UniProt P07949). Put plainly: Inhibition of RET (unknown origin) by DiscoverX KINOMEscan assay.
Data set [5] addresses [Pyruvate dehydrogenase (acetyl-transferring)] kinase isozyme 1, mitochondrial (Homo sapiens, UniProt Q15118). The experiment in a line: Inhibition of PDK1 (unknown origin) incubated for 30 mins followed by substrate addition measured after 60 mins in presence of ATP by ADP-Glo luminescent assay. In general terms: ADP-Glo turns the ADP formed in a reaction into a luminescent signal.

The subject of the next data set is PSN1. Format: functional, cell-based. The note with it: Homo sapiens, PSN1, 72 h.
Data set [6] addresses T1, Receptor-interacting serine/threonine-protein kinase 1 (Homo sapiens, UniProt Q13546).
T1 sequence (Q13546 whole entry): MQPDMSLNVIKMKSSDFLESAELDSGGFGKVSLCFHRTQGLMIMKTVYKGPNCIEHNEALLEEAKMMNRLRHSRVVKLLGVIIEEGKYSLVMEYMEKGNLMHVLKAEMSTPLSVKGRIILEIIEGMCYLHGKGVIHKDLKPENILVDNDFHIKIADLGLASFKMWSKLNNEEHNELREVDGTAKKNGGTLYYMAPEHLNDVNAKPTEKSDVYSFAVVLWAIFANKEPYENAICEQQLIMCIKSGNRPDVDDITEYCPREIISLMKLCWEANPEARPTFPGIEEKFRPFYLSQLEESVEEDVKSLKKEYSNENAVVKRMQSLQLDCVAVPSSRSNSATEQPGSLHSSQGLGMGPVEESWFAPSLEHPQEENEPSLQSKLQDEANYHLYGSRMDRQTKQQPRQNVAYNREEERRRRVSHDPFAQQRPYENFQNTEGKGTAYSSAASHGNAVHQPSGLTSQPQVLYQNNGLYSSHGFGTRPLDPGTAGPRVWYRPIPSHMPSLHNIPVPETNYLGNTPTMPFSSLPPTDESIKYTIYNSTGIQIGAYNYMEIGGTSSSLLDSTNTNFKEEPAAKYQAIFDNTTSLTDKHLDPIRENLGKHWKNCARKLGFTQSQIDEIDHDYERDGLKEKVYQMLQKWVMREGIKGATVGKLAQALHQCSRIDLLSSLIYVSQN
The experiment in a line: Inhibition of RIPK1 (unknown origin).

The target in data set [7] is Receptor-interacting serine/threonine-protein kinase 3 (Homo sapiens, UniProt Q9Y572). Put plainly: Inhibition of RIPK3 (unknown origin).
For data set [8], the target named is T1, Receptor-interacting serine/threonine-protein kinase 1. Put plainly: Inhibition of human RIPK1 by ADP-Glo assay.
For the next data set, the system named is MDA-MB-231. It counts as functional, cell-based. The note with it: Homo sapiens, MDA-MB-231, 48 h.
Data set [9] concerns the target Phosphatidylinositol 4,5-bisphosphate 3-kinase catalytic subunit beta isoform (Homo sapiens, UniProt P42338). The experiment in a line: Inhibition of PI3Kbeta (unknown origin).
Data set [10] has as its target T2, Phosphatidylinositol 4,5-bisphosphate 3-kinase catalytic subunit delta isoform (Homo sapiens, UniProt O00329).
T2 sequence (O00329 whole entry): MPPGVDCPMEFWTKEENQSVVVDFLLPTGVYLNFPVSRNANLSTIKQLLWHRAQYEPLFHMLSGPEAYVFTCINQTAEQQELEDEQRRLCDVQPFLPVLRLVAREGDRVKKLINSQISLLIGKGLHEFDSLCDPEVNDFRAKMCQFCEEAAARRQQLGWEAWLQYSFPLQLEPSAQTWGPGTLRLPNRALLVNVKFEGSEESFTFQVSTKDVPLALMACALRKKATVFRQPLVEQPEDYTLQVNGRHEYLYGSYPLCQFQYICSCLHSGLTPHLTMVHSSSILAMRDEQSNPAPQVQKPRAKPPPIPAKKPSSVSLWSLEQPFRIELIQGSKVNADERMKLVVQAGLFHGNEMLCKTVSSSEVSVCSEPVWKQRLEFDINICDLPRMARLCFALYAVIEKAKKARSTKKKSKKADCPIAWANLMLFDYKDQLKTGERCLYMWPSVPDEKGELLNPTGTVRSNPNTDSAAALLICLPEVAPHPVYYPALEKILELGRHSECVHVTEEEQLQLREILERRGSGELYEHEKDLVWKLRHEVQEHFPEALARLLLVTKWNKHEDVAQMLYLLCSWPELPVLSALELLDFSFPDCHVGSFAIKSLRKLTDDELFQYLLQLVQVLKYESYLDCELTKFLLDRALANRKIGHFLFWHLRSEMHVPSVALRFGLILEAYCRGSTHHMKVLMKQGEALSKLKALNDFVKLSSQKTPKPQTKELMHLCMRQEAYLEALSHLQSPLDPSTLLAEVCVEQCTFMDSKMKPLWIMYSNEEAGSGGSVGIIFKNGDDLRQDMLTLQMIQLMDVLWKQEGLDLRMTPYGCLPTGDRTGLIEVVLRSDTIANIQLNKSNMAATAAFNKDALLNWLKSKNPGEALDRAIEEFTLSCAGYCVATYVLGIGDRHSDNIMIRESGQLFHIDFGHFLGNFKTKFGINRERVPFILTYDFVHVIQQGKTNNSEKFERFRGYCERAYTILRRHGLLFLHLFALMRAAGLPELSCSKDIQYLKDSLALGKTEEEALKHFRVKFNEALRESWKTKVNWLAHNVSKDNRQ
The experiment in a line: Inhibition of PI3Kdelta (unknown origin).

The target in data set [11] is Phosphatidylinositol 4,5-bisphosphate 3-kinase catalytic subunit gamma isoform (Homo sapiens, UniProt P48736). Put plainly: Inhibition of PI3Kgamma (unknown origin).
Phosphatidylinositol 4,5-bisphosphate 3-kinase catalytic subunit gamma isoform, sequence (P48736 whole entry, canonical isoform): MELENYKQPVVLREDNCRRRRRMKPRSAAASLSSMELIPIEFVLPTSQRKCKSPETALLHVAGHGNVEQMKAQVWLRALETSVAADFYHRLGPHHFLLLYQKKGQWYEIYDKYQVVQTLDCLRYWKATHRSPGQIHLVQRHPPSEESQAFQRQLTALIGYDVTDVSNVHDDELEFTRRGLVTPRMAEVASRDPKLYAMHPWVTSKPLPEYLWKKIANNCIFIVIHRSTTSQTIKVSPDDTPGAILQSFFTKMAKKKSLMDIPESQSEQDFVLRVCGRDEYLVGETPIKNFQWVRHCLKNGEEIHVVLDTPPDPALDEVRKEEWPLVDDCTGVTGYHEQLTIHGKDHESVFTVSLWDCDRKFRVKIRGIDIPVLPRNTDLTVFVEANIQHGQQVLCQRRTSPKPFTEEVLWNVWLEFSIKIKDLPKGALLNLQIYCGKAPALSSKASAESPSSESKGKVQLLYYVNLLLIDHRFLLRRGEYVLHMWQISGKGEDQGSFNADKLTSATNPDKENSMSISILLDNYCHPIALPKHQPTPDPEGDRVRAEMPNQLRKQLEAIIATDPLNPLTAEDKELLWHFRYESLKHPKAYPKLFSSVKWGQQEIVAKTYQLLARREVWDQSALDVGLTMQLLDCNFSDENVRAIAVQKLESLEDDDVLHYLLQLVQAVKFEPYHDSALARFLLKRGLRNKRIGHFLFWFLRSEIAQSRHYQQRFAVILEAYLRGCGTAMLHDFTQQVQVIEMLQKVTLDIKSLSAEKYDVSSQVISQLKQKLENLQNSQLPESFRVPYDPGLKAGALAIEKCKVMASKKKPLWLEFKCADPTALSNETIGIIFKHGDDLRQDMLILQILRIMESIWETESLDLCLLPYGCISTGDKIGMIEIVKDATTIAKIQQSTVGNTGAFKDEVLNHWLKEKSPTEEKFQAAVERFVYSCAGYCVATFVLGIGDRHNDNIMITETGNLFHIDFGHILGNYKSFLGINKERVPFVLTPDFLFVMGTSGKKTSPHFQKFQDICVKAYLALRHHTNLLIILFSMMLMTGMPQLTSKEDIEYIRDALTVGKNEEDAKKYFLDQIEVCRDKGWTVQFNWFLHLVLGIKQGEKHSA
In data set [12] the target is Phosphatidylinositol 4,5-bisphosphate 3-kinase catalytic subunit alpha isoform (Homo sapiens, UniProt P42336). The experiment in a line: Inhibition of PI3Kalpha (unknown origin).
Phosphatidylinositol 4,5-bisphosphate 3-kinase catalytic subunit alpha isoform, sequence (P42336 whole entry, canonical isoform): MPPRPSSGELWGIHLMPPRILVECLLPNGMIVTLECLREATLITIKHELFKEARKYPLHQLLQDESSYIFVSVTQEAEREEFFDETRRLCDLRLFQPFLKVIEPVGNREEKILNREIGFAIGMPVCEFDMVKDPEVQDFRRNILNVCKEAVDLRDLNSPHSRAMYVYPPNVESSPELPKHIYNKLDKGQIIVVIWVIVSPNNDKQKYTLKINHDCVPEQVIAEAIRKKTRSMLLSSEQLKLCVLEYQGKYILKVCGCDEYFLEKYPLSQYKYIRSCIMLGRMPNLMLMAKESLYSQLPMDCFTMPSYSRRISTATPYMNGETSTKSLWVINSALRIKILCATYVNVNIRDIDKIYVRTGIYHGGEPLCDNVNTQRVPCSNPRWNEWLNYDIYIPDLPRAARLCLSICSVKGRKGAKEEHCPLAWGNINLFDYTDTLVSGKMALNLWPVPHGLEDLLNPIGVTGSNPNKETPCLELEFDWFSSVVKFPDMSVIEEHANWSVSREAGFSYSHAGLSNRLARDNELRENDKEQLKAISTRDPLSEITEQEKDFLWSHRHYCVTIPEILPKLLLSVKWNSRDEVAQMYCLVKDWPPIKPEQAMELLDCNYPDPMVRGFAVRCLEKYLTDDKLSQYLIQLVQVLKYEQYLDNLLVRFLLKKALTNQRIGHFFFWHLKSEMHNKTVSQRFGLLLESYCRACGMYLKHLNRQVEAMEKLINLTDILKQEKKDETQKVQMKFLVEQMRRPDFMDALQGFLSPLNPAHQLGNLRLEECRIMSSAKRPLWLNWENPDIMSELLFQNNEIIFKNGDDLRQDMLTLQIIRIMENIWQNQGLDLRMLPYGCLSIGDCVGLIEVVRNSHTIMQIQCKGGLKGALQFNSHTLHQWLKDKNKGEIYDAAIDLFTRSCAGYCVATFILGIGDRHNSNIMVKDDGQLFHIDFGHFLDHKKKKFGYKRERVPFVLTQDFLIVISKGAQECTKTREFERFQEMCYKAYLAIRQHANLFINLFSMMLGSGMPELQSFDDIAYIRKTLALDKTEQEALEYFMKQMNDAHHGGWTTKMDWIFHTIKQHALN
The next data set relates to MCF7. Put plainly: Antiproliferative activity against human MCF7 cells assessed as reduction in cell viability measured after 48 hrs by MTT assay. Format: functional, cell-based. The note with it: MCF7, 48 h. On the technique in general: Tetrazolium dyes change colour on reduction, which living cells bring about.

[Pyruvate dehydrogenase (acetyl-transferring)] kinase isozyme 1, mitochondrial, sequence (Q15118 whole entry): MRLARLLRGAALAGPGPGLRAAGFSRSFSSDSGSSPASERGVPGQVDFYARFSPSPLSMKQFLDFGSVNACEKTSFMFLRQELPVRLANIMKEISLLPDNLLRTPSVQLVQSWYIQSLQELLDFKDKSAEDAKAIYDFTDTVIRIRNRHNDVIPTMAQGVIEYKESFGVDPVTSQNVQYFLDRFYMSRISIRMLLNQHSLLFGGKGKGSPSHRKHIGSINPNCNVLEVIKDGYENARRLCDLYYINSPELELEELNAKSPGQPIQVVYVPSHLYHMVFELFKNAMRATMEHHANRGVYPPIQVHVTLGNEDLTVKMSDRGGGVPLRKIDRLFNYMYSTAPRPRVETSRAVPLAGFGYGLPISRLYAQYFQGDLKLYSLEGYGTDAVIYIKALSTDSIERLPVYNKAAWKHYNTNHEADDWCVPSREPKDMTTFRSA
Phosphatidylinositol 4,5-bisphosphate 3-kinase catalytic subunit beta isoform, sequence (P42338 whole entry, canonical isoform): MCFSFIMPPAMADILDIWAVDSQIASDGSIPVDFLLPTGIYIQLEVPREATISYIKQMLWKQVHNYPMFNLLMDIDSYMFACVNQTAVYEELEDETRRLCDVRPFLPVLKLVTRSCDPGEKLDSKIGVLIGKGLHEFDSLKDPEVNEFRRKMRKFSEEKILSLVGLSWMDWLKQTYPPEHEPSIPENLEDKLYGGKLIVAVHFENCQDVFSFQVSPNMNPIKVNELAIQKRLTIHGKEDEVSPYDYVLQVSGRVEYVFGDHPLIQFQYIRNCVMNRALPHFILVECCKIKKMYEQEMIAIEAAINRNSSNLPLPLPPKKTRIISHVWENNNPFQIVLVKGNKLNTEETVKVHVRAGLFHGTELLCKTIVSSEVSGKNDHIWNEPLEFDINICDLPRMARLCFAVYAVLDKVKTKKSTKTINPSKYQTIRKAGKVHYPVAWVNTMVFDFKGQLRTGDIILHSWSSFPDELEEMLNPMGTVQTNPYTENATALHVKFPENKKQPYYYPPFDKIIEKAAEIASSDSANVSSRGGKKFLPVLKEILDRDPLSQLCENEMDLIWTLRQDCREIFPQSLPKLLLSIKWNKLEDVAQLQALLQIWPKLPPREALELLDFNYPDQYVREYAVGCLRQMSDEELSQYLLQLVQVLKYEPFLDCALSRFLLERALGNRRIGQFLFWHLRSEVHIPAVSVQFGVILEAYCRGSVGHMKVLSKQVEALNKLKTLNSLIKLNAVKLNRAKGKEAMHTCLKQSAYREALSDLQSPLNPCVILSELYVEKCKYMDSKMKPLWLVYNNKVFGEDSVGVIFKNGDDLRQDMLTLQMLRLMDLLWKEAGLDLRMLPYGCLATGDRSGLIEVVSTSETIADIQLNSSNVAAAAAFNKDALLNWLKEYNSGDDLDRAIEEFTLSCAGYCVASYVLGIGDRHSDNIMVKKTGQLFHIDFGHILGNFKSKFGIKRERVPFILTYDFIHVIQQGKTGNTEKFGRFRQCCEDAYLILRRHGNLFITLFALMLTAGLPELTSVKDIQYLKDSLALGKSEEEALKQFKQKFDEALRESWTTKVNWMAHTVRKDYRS

Take `NC(=O)c1cc(Cl)c2c(Cl)c(C3CC3)n(C3CCCNC3)c2n1` (centres undefined): the results for the IC50 (in data set [1]; in the data set with KG-1) were 1 µM and below 0.1 µM, respectively.

For the molecule `NC(=O)c1cc(Cl)c2c(Cl)c(I)n(C3CCCNC3)c2n1` (centres undefined), the values for the IC50 (in data set [1]; in the data set with KG-1) were 1 µM and below 0.1 µM, respectively.

`NC(=O)c1cc(Cl)c2c(Cl)c(C#CC3CC3)n(C3CCCNC3)c2n1` (centres undefined) gave an IC50 in the data set with KG-1 below 0.1 µM.

Molecule `Cc1cc(-n2cc(C(=O)N3CCOCC3)c3ccc(N[C@@H](C)c4ccc(F)cn4)nc32)[nH]n1` gave an IC50 in [2] of 0.0025 µM. In addition, in data set [3], the efflux ratio at 1.5 h, 5 µM came out at 18.

For the molecule `COc1ccc(-c2cnc3[nH]cc(C#Cc4cccnc4)c3c2)cc1OC`, the EC50 with Dengue virus came to 0.72 µM.

In turn, `CN1CCN(Cc2ccc(NC(=O)c3cccc(/N=N/c4cnc5[nH]ccc5c4)c3)cc2C(F)(F)F)CC1` displayed an IC50 in data set [4] of 0.05 µM.

With `Cn1cc(-c2nc(N)nnc2-c2c[nH]c3ccc(F)cc23)c2cc(Br)cnc21`, the half-inhibitory concentration (IC50) in data set [5] worked out at 0.03 µM; in the data set on PSN1, 3.3 µM.

Take `Oc1ccc(-c2cnc3[nH]ccc3c2)cc1`: in data set [6], 1.47 µM corresponded to half-maximal inhibition (IC50).

Turning to `Cn1cc(-c2nnc(N)nc2-c2c[nH]c3ccc(Br)cc23)c2cc(Br)cnc21`, the IC50 in data set [5] came to 0.03 µM; in the data set on PSN1, 3.3 µM.

For the molecule `NC(=O)c1ccc(-c2cc3cccnc3[nH]2)cc1`, the IC50 in data set [6] came to 0.09 µM.

As for `O=C(c1ccc(-c2cc3cccnc3[nH]2)cc1)N1CCOCC1`, the figures for the IC50 in data set [7] and in [8] were above 20 µM and 0.08 µM, respectively.

On to `Cn1cc(-c2nc(N)nnc2-c2c[nH]c3ccc(Br)cc23)c2cc(Br)cnc21`, for which the IC50 in data set [5] was 0.03 µM; with PSN1 it was 3.3 µM.

For `Cn1cc(-c2nnc(N)nc2-c2c[nH]c3ccc(F)cc23)c2cc(Br)cnc21`, the IC50 came to 0.03 µM in [5] and 3.3 µM with PSN1.

Consider `O=S(=O)(Nc1cc(-c2cnc3[nH]cc(-c4ccc(N5CCOCC5)nc4)c3c2)cnc1Cl)c1ccccc1`, for which the IC50 in the data set with MDA-MB-231 came out at 0.45 µM; in [9], 0.0003 µM; in [10], 0.0003 µM; in data set [11], 0.0003 µM; in data set [12], 0.0003 µM; in the data set on MCF7 it was 1.19 µM.

For the molecule `Cc1cc(-n2cc(C(=O)N3CCO[C@@H](C)C3)c3ccc(OC(C)c4ccc(F)cn4)nc32)n[nH]1` (some centres undefined), in data set [3], the efflux ratio at 1.5 h, 5 µM was determined as 1.

Regarding `O=S(=O)(Nc1cc(-c2cnc3[nH]cc(-c4cnn(CCN5CCOCC5)c4)c3c2)cnc1Cl)c1ccccc1`, the IC50 turned out to be 1.2 µM in the data set on MDA-MB-231; 0.0003 µM in data set [9]; 0.0003 µM in data set [10]; 0.0003 µM in data set [11]; 0.0003 µM in data set [12]; 6 µM with MCF7.
